Measured values reported in patent US11166928B2, “Migraine prevention and treatment” (UNIVERSITATS-KINDERSPITAL, priority 2016, dated 2021).
“Also recorded” adds a separate entry of the source. Like-named read-outs stand apart in the source and are kept apart here. Each block holds one molecule with its values, some of them ahead of it.

What was measured:
[1] = set-up: species or system human; settings: in vivo, po
Excerpt: (§1) Patients diagnosed with medium-high frequency or chronic migraine according to International Headache Society Classification version 3 by an experienced neurologist were included. They were excluded if they had any significant other neurological, psychiatric or medical disorder. A minimum average of 6 migraine days/month was required during the last 3 months. Ten migraine patients (age range: 25-61 years, 1 male, attack frequency range: 6-24 migraine days/months) were included in the pilot study and randomly assigned to four conditions: 1) L-leucine (LL), 2) L-lysine (LY), 3) racemic βHB, 4) D-βHB.
(§2) L-leucine (LL) and L-lysine (LY) are the two completely ketogenic amino acids. Via various steps, unused ketogenic amino acids (i.e. leucine or lysine) are metabolised into KB. While this is commonly known, to the best of our knowledge no data exists on the extent and time frame of such ketogenic amino acids to raise blood βHB levels. For the pharmacokinetics, four migraine patients were instructed to ingest either 13 g LL or 13 g LY on an empty stomach. Blood βHB and glucose concentrations were measured using a portable point-of-care blood ketone meter (Precision Xtra®) and matching test stripes at 5 points in time: 1) Baseline (directly before consumption), 2) 0.5 h after consumption, 3) 1 h after consumption, 4) 2 h after consumption, 5) 3 h after consumption and 6) 4 h after consumption. 13 g roughly correspond to the same number of particles (mmol) as 10 g βHB. Highest average concentrations of βHB were found after 2 and 3 h (mean=0.35 mmol/I; SEM=0.05) and remained levels to remain elevated for over 4 hours (see FIG. 1).
For determining pharmacokinetics, the patients were given 10 g racemic beta-hydroxybutyrate (βHB) orally dissolved in water in 3 different conditions: (1) post cibum (after meal) (2) ante cibum (before meal) (3) 1 hour before meal. Blood βHB and glucose concentrations were measured using a portable point-of-care blood ketone meter (Precision Xtra®) and matching test stripes at 5 points in time: 1) Baseline (directly before consumption), 2) 0.5 h after consumption, 3) 1 h after consumption, 4) 2 h after consumption, 5) 3 h after consumption and 6) 4 h after consumption. […] The levels dropped to near baseline after 2 hours.
Participants were given 10 g D-beta-hydroxybutyrate (βHB) orally dissolved in water in a fasted state. Blood βHB and glucose concentrations were measured using a portable point-of-care blood ketone meter (Precision Xtra®) and matching test stripes at 5 points in time: 1) Baseline (directly before consumption), 2) 0.5 h after consumption, 3) 1 h after consumption, 4) 2 h after consumption, 5) 3 h after consumption and 6) 4 h after consumption (see FIG. 5A). As with racemic βHB, highest average concentrations of βHB were found after approximately 1 h (mean=1.94 mmol/I; SEM=0.48).

[2] = Blood glucose levels after a single oral dose, measured at the same time as βHB; type: in vivo, human; settings: 10 g single oral dose, ante cibum/fasted
Excerpt: as §2, with “13 g roughly correspond to the same number of particles (mmol) as 10 g βHB. Highest average concentrations of βHB were found after 2 and 3 h (mean=0.35 mmol/I; SEM=0.05) and remained levels to remain elevated for over 4 hours (see FIG. 1).” left out
For determining pharmacokinetics, the patients were given 10 g racemic beta-hydroxybutyrate (βHB) orally dissolved in water in 3 different conditions: (1) post cibum (after meal) (2) ante cibum (before meal) (3) 1 hour before meal. Blood βHB and glucose concentrations were measured using a portable point-of-care blood ketone meter (Precision Xtra®) and matching test stripes at 5 points in time: 1) Baseline (directly before consumption), 2) 0.5 h after consumption, 3) 1 h after consumption, 4) 2 h after consumption, 5) 3 h after consumption and 6) 4 h after consumption. […]

[3] = system: migraine patients; assay: Open-label pilot intervention: change in days with migraine from baseline (headache diary); type: in vivo, human
Excerpt: as §1, with “D-βHB. […]” for “D-βHB.”
(§3) Monthly migraine attack frequency was summarized over the last 3 months and the average was used for baseline comparison. Patients were either instructed to take 20 g βHB, 26 g LL or 26 g LY in two daily doses (one hour before breakfast and one hour before dinner, respectively) for the duration of 4 weeks. They were instructed to refrain from any other changes in medication or food habits for the duration of that period. The primary outcome measure was changes in days with migraines from baseline. Days with migraine were recorded using a mobile app (myheadache.ch) or a pen and paper diary and averaged across participants.
Those two chronic migraineurs (20 or 22 migraine days/month) where instructed to take 20 g racemic βHB daily for 4 weeks and after a 1 week washout period double the dose to 40 g βHB for the following 4 weeks. Migraine days were recorded for the duration of the intervention and patients were instructed to refrain from any other life-style or medication changes. The mean baseline attack frequency was 21 migraine days (SEM=1) and dropped to 11.5 days after 4 weeks of 20 g βHB daily and 6 days after 4 weeks of 40 g βHB daily (see FIG. 4 A). This preventive effect is roughly proportional to the increase in dose, with 20 g βHB leading to 46% reduction in migraine days from baseline (SEM=18.86) and 40 g βHB to a 72% reduction (SEM=12.95; see FIG. 4 B).
as §3, with “were” for “were either”, “10” for “20”, “racemic βHB” for “βHB, 26 g LL or 26 g LY in two daily doses (one hour before breakfast and one hour before dinner, respectively)”, “8 weeks, followed by one week wash-out period and then 8 weeks of 10 g D-βHB daily.” for “4 weeks.”

[4] = system: migraine patients; assay: Tolerability, adverse events and palatability in the pilot experiments; type: in vivo, human
Excerpt: as §3, with “take” for “take 20 g βHB,”
as §3
as §3, with “were” for “were either”, “10” for “20”, “racemic βHB” for “βHB, 26 g LL or 26 g LY in two daily doses (one hour before breakfast and one hour before dinner, respectively)”, “8 weeks, followed by one week wash-out period and then 8 weeks of 10 g D-βHB daily.” for “4 weeks.”

[5] = system: migraine patients; assay: as above; type: in vivo, human; settings: 40 g daily, 4 weeks; 2 patients
[6] = 10 g daily, 8 weeks, 2 patients, mean baseline 13.5 days

Structure (SMILES): CC(O)CC(=O)O (racemic) [racemic βHB, beta-hydroxybutyric acid]
- Half-life of blood βHB elevation (in words) ([1]; human): very short
- Time after which blood βHB levels dropped back to (near) baseline ([1]; human): 2 h
- Time of highest average βHB concentration ([1]; human): approximately 1 h
- Peak blood βHB level relative to LL [1]: approximately double
- Change in blood glucose levels after consumption [2]: substantial drop; also recorded: drop in blood glucose
- Average reduction in migraine days compared to baseline ([3]; 10 g daily, 8 weeks, 2 high-frequency migraineurs (17 and 10 migraine days/month)): 18.5%
- Mean migraine days after intervention [3, 6]: 11 days
- Average reduction in migraine days compared to baseline ([3]; 20 g daily in two doses, 4 weeks, 4 medium-high frequency migraineurs (6-22 migraine days/month)): 51%
- Reduction in migraine days from baseline ([3]; 20 g daily, 4 weeks, 2 chronic migraineurs (20 or 22 migraine days/month)): 46%
- Mean migraine days after intervention ([3]; 20 g daily, 4 weeks, 2 chronic migraineurs, mean baseline 21 migraine days): 11.5 days
- Mean migraine days after intervention ([3]; 20 g daily, 4 weeks, mean baseline 16.25 days): 8 days
- Range of reduction in migraine days compared to baseline ([3]; 20 g daily, 4 weeks, range across patients): 25-80%
- Mean migraine days after intervention ([3]; 40 g daily, 4 weeks, 2 chronic migraineurs, mean baseline 21 migraine days): 6 days
- Adverse events / tolerability ([4]; 20 g daily, 4 weeks, 5 patients): severe nausea and vertigo; also recorded: gastrointestinal upset; also recorded: problematic
- Side-effects at increased dose [5]: increased side-effects further in both patients; also recorded: exacerbated the side-effects

Structure (SMILES): CC(O)CC(=O)O (racemic) [βHB, beta-hydroxybutyric acid]
- Median migraine days after the intervention ([3]; 20 g daily, 4 weeks, median at baseline 18): 7 migraine days
- Tolerability (in words) ([4]; in comparison to the ketogenic amino acids, dose and isomer not stated): well tolerated

Structure (SMILES): NCCCC[C@H](N)C(=O)O [LY, L-lysine, reference compound]
- Adverse events / tolerability ([4]; 26 g daily (13 g twice a day)): diarrhoea or nausea

The next lines start with results.

- Time of highest average βHB concentration [1]: approximately 1 h
Structure (SMILES): CC(O)CC(=O)O [D-βHB, D beta-hydroxybutyric (βHB) acid]
- Change in blood glucose levels after consumption [2]: completely stable; also recorded: does not seem to lead to a potentially unwanted drop in blood glucose levels; also recorded: no concomitant drop in blood glucose
- Mean migraine days after intervention [3, 6]: 4.25 days
- Side-effects / tolerability ([4]; 10 g daily, 8 weeks (2 months), 2 patients): No side-effects; also recorded: much better tolerated; also recorded: fewer gastrointestinal side-effects

- Time of highest average βHB concentration ([1]; human): 2 and 3 h
Structure (SMILES): CC(C)C[C@H](N)C(=O)O [LL, L-leucine, reference compound]
- Adverse events / tolerability ([4]; 26 g daily (13 g twice a day)): diarrhoea or nausea
